This is an account of results in publication PMC4748418 (Journal of chromatography. A, 2015).

The target of assay [1] is T1, α3β4α5 nAChR (Homo sapiens, UniProt P30532+P30926+P32297). The assay is described as follows: biochemical.
The target of another assay is α3β4 nAChR (Homo sapiens, UniProt P30926+P32297). In words: biochemical.
Assay [2] has as its target T1, α3β4α5 nAChR. Particulars: agonist binding site.

Sequence of α3β4 nAChR (P32297 32-505): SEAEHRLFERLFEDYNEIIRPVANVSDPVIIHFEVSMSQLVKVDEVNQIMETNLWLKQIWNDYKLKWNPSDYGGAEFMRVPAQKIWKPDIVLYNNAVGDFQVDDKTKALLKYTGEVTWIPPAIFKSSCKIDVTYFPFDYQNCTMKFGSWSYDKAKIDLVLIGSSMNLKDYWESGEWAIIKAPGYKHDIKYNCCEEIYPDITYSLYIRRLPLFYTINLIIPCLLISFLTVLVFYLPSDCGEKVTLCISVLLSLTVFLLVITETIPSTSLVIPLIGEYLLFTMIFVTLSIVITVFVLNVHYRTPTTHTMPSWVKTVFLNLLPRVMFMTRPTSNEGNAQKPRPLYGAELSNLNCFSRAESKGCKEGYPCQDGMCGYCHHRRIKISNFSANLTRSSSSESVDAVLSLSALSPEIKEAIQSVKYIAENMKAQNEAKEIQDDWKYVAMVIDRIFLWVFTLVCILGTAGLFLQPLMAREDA
Sequence of α3β4 nAChR (P30926 22-498): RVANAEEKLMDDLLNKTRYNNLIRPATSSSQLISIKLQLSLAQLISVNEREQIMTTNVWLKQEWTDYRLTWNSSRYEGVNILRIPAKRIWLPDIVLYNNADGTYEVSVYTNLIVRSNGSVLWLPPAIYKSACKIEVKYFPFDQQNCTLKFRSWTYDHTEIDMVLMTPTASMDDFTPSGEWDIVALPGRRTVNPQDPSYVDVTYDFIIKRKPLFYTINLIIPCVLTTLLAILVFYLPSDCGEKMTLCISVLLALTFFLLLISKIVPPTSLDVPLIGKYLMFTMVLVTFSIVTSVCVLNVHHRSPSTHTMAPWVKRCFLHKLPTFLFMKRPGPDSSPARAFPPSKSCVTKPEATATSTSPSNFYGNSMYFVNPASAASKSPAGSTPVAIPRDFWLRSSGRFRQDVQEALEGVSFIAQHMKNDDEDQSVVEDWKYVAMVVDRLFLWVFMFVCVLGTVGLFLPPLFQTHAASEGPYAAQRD
T1 sequence (P32297 32-505): as the sequence (P32297 32-505) above
T1 sequence (P30926 22-498): as the sequence (P30926 22-498) above
T1 sequence (P30532 23-468): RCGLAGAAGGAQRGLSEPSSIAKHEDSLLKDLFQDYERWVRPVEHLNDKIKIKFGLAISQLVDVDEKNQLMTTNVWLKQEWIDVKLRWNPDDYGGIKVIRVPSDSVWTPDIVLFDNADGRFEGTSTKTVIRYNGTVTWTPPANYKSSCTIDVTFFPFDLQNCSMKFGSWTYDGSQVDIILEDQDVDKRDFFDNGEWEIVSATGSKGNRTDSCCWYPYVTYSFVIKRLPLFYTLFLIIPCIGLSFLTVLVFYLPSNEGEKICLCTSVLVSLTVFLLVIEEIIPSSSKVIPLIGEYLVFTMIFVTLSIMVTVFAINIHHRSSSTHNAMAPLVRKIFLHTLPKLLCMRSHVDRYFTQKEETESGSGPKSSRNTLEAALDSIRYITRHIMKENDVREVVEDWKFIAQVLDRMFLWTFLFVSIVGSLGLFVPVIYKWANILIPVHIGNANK

Turning to `O=c1cccc2n1C[C@@H]1CNC[C@H]2C1` [Cytisine], the dissociation constant (Kd) (as a rule, the equilibrium constant for the complex coming apart) on α3β4α5 nAChR [1] was determined as 5.4 nM; on α3β4 nAChR, 8.5 nM. Further, the inhibition constant (Ki) – broadly, the equilibrium dissociation constant of an inhibitor or competing ligand from its target – came out at 5.4 ± 3.5 nM at α3β4α5 nAChR [1] and 8.52 ± 5.7 nM on α3β4 nAChR.

As to `c1cncc([C@@H]2CCCCN2)c1` [Anabasine], on α3β4α5 nAChR [1], the affinity, expressed as Ki, was 67.5 ± 25.8 nM. Besides, on α3β4α5 nAChR [2], the “higher affinity for the α3β4α5 nAChR vs the α3β4 nAChR” value is recorded as 10 fold; the “subtype selectivity between α3β4 and α3β4α5 nicotinic receptors” value is listed as “selective for the α3β4α5 nicotinic receptor”. For the same compound, on α3β4 nAChR, the affinity, expressed as Ki, was 528 ± 136 nM.

Consider `c1cncc([C@@H]2CCCN2)c1` [Nornicotine], for which, at α3β4α5 nAChR [1], the equilibrium dissociation constant (Kd) worked out at 21 nM and the Ki came to 20.8 ± 11.7 nM. The “subtype selectivity between α3β4 and α3β4α5 nicotinic receptors” value at α3β4α5 nAChR [2] is recorded as “no subtype selectivity”. At α3β4 nAChR, binding was put at a Kd of 36 nM and affinity was put at a Ki of 35.6 ± 18.9 nM.
